Source: US9051456B2, “Agent for drug clearance and accelerator for drug clearance” (SEIKAGAKU CORPORATION, priority 2005, dated 2015)

Assay: Elimination of FP from inside of the oral cavity by gargling/rinsing (Tests 1 to 6), FP in spat-out liquids measured by HPLC
Format: in vivo, human (healthy adult volunteers)
Settings: conclusion from Tests 1 to 6
Procedure: Healthy 5 adult volunteers were selected. In this connection, these volunteers received sufficient explanation from a doctor based on a descriptive document, and after understanding the explanation, submitted a document on their own judgment stating that they approved the participation in the test.
In this connection, application of FP was carried out by directly applying the FP (dry powder) took out on powder papers. Also, the subjects were given attention not to inhale the FP applied into the oral cavity from the bronchus to the lungs.
Test 1: After rinsing inside of the oral cavity, inside of the oral cavity was dried by blowing air for 30 seconds with a dryer, and then FP (100 μg) was sparged to the oral cavity. Thereafter, rinsing of the mouth with looking upward (gargling) was carried out for 5 seconds and then rinsing of the mouth facing front (rinsing) was carried out for 5 seconds (these are regarded as once), respectively using 20 ml of purified water, which was repeated 5 times. […]
In each test, the liquids spat out after gargling and rinsing by each subject were recovered, and FP concentrations in said liquids were respectively measured. […]
Based on the measured FP concentrations, amounts of FP eliminated from inside of the oral cavity were calculated, and mean value and standard deviation (SD) in each test were calculated. […]

hyaluronic acid [HA]
overall effect on elimination of drugs and acceleration of elimination: markedly effective
